Measured values: ChEMBL document CHEMBL1135048, “Synthesis and biological evaluation of 2-indolyloxazolines as a new class of tubulin polymerization inhibitors. Discovery of A-289099 as an orally active antitumor agent” (Bioorg Med Chem Lett, 2002)
Values after ≈ are worked out from the molar mass of the structure shown. One block for each molecule: values may come before it.

Experiments:
HCT-15 [1] = test: Antiproliferative activity against the MDR positive human colon adenocarcinoma cell line HCT-15; assay type: functional, cell-based
NCI-H460 = test: Antiproliferative activity against the human non small cell lung carcinoma cell line NCI-H460; assay type: functional, cell-based
[2] = Oral bioavailability in rat (dose single 10 mg/kg); assay type: ADME, organism-based; conditions: in vivo
Tubulin beta chain [3] = molecular target: T1, Tubulin beta chain (Bos taurus, UniProt Q6B856); test: Activity towards binding at colchicine site of bovine brain tubulin
T1 sequence (Q6B856 whole entry): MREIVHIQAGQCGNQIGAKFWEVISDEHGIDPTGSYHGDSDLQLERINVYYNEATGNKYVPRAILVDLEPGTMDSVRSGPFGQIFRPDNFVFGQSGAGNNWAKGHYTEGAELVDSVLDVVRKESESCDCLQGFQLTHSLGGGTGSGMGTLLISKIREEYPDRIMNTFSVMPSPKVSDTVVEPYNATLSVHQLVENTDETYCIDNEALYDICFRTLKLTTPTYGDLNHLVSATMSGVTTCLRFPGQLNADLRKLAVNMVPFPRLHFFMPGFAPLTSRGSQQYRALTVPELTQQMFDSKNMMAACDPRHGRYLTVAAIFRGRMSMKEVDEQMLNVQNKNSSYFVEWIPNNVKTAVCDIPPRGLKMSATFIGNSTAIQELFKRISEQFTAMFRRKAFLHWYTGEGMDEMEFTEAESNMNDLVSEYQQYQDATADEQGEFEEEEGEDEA

[4] = Oral bioavailability in monkey (dose 5 mg/kg); assay type: ADME, organism-based; conditions: cercopithecidae, in vivo
[5] = Solubility of compound in 0.1 M HCl; assay type: physicochemical; conditions: read-out: S
[6] = Partition coefficient of compound; assay type: physicochemical; conditions: octanol/water
Mus musculus [7] = test: Increase in life span of M5076 murine ovarian sarcoma bearing mice at a dose of 100 mg/kg/day; assay type: functional
[8] = Half life period in monkey after 5 mg/kg dose; assay type: ADME, organism-based; set-up: dose 5 mg/kg; conditions: cercopithecidae, in vivo
[9] = Area under curve value in monkey at a dose of 5 mg/kg; assay type: ADME, organism-based; set-up: dose 5 mg/kg; conditions: cercopithecidae, in vivo
[10] = Oral bioavailability in mouse (dose 10 mg/kg); assay type: ADME, organism-based; conditions: in vivo
[11] = Half life period in dog after 5 mg/kg dose; assay type: ADME, organism-based, Canis lupus familiaris; set-up: dose 5 mg/kg; conditions: in vivo
HCT-15 [12] = test: Inhibitory concentration of compound against of microtubule […] in human HCT-15 colon carcinoma; assay type: functional, cell-based
[13] = (§1) Inhibition of bovine brain microtubule polymerization; assay type: functional, Bos taurus
A549 = test: Activity against human lung cancer with mutated beta-tubulin (A549-T2415); assay type: functional, cell-based
[14] = pKa of the compound; assay type: physicochemical
[15] = Area under curve value in mouse at a dose of 10 mg/kg; assay type: ADME, organism-based; set-up: dose 10 mg/kg; conditions: in vivo
[16] = Half life period in rat after 5 mg/kg dose; assay type: ADME, organism-based; set-up: dose 5 mg/kg; conditions: in vivo
Mus musculus [17] = test: In vivo efficacy to delay 1 g volume of M5076 murine ovarian sarcoma formation in mice at a dose of 100 mg/Kg/day; assay type: functional
[18] = Half life period in mouse after 10 mg/kg dose; assay type: ADME, organism-based; set-up: dose 10 mg/kg; conditions: in vivo
[19] = Area under curve value in dog at a dose of 5 mg/kg; assay type: ADME, organism-based, Canis lupus familiaris; set-up: dose 5 mg/kg; conditions: in vivo
[20] = Oral bioavailability in dog (dose 5 mg/kg); assay type: ADME, organism-based, Canis lupus familiaris; conditions: in vivo
[21] = Oral bioavailability in rat (dose 5 mg/kg; assay type: ADME, organism-based; conditions: in vivo
Mus musculus [22] = test: Increase in life span of M5076 murine ovarian sarcoma bearing mice at a dose of 50 mg/Kg/day; assay type: functional
Mus musculus [23] = test: In vivo efficacy to delay 1 g volume of M5076 murine ovarian sarcoma formation in mice at a dose of 50 mg/Kg/day; assay type: functional
[24] = Area under curve value in rat at a dose of 5 mg/kg; assay type: ADME, organism-based; set-up: dose 5 mg/kg; conditions: in vivo
[25] = Solubility of compound in pH 7.4 phosphate buffer; assay type: physicochemical
[26] = Half life period in mouse after 10 mg/Kg dose; assay type: ADME, organism-based; conditions: in vivo
[27] = Half life period in rat after 5 mg/Kg dose; assay type: ADME, organism-based; conditions: in vivo
Tubulin beta chain [28] = molecular target: T1, Tubulin beta chain; test: Binding constant at colchicine site of bovine brain tubulin
Bos taurus = species on record: Bos taurus; test: as §1; assay type: functional

IC50 (HCT-15 [1]): 1300 nM
IC50 (NCI-H460): 1200 nM
Compound: COc1cc(C2CN=C(c3ccc4c(c3)nc(C)n4C)O2)cc(OC)c1OC (centres undefined)

IC50 (HCT-15 [1]): 480 nM
bioavailability [2]: 34.3%
IC50 (NCI-H460): 680 nM
Compound: COCn1ccc2cc(C3=NCC(c4cc(OC)c(OC)c(OC)c4)O3)ccc21 (centres undefined)

IC50 (HCT-15 [1]): 280 nM
bioavailability [2]: 0%
IC50 (NCI-H460): 420 nM
Compound: COc1cc(C2CN=C(c3ccc4ccn(C)c4c3)O2)cc(OC)c1OC (centres undefined)

IC50 (HCT-15 [1]): 150 nM
bioavailability [2]: 40%
IC50 (NCI-H460): 350 nM
Compound: COc1cc(C2CN=C(c3cc4ccccc4[nH]3)O2)cc(OC)c1OC (centres undefined)

IC50 (HCT-15 [1]): 37 nM
bioavailability [2]: 2.5%
IC50 (NCI-H460): 87 nM
Compound: COc1cc(C2CN=C(c3cccc4c3ccn4C)O2)cc(OC)c1OC (centres undefined)

IC50 (HCT-15 [1]): 44000 nM
IC50 (NCI-H460): 37000 nM
Compound: COc1cc(C2CN=C(c3ccnc4ccccc34)O2)cc(OC)c1OC (centres undefined)

Compound: COc1cc2c(c(OC)c1OC)-c1ccc(OC)c(=O)cc1[C@@H](NC(C)=O)CC2 [COLCHICINE]
IC50 (HCT-15 [1]): 140 nM
IC50 (NCI-H460): 46 nM

IC50 (Tubulin beta chain [3]): 3400 nM
Compound: COc1cc(C2OC(c3ccc(N)c(C)c3)=NN2C(C)=O)cc(OC)c1OC (centres undefined)

Compound: COc1cc([C@H]2CN=C(c3ccc4c(ccn4C)c3)O2)cc(OC)c1OC
bioavailability [4]: 18.6%
IC50 (HCT-15 [1]): 8.6 nM
solubility [5]: 1270 µg/mL (≈ 3470 µM)
logD [6]: 3.94
ILS at 100 mg/kg/day (Mus musculus [7]): 206%
half-life [8]: 1.3 h
AUC [9]: 1750 ng·h/mL
bioavailability [10]: 15.1%
half-life [11]: 3.3 h
Concentration (HCT-15 [12]): 44 nM
IC50 [13]: 2300 nM
IC50 (A549): 6.3 nM
pKa [14]: 5
AUC [15]: 5690 ng·h/mL
half-life [16]: 2.1 h
Mean tumor delay (Mus musculus [17]): 28.4 days
half-life [18]: 1.1 h
AUC [19]: 160 ng·h/mL
bioavailability [20]: 6.5%
bioavailability [21]: 17.1%
ILS at 50 mg/kg/day (Mus musculus [22]): 139%
IC50 (NCI-H460): 6.2 nM
Mean tumor delay (Mus musculus [23]): 19 days
AUC [24]: 7180 ng·h/mL
solubility [25]: 0.7 µg/mL (≈ 1.91 µM)

IC50 (HCT-15 [1]): 40000 nM
IC50 (NCI-H460): 16000 nM
Compound: COc1cc(C2CN=C(c3ccc4nccn4c3)O2)cc(OC)c1OC (centres undefined)

IC50 (HCT-15 [1]): 70 nM
bioavailability [2]: 11.1%
IC50 (NCI-H460): 49 nM
Compound: CCn1ccc2cc(C3=NCC(c4cc(OC)c(OC)c(OC)c4)O3)ccc21 (centres undefined)

IC50 (HCT-15 [1]): 15000 nM
IC50 (NCI-H460): 150000 nM
Compound: COc1cc(C2CN=C(c3cccc4ccn(C)c34)O2)cc(OC)c1OC (centres undefined)

IC50 (HCT-15 [1]): 16300 nM
IC50 (NCI-H460): 8180 nM
Compound: COc1cc(C2CN=C(c3ccc4c(ccn4S(C)(=O)=O)c3)O2)cc(OC)c1OC (centres undefined)

IC50 (HCT-15 [1]): 16 nM
bioavailability [2]: 34.7%
IC50 (NCI-H460): 14 nM
Compound: COc1cc(C2CN=C(c3ccc4c(ccn4C)c3)O2)cc(OC)c1OC (centres undefined)

IC50 (HCT-15 [1]): 6400 nM
IC50 (NCI-H460): 7100 nM
Compound: COc1cc(C2CN=C(c3ccc4[nH]cnc4c3)O2)cc(OC)c1OC (centres undefined)

IC50 (HCT-15 [1]): 2900 nM
bioavailability [2]: 55.8%
IC50 (NCI-H460): 2900 nM
Compound: COc1cc(C2CN=C(c3ccc4c(ccn4C4CC4)c3)O2)cc(OC)c1OC (centres undefined)

IC50 (HCT-15 [1]): 520 nM
IC50 (NCI-H460): 520 nM
Compound: COc1cc(C2CN=C(c3ccc4cc(C)cn4c3)O2)cc(OC)c1OC (centres undefined)

IC50 (HCT-15 [1]): 37 nM
bioavailability [2]: 2.5%
IC50 (NCI-H460): 87 nM
Compound: COc1cc(C2CN=C(c3cn(C)c4ccccc34)O2)cc(OC)c1OC (centres undefined)

IC50 (HCT-15 [1]): 61 nM
bioavailability [2]: 0%
IC50 (NCI-H460): 57 nM
Compound: COc1cc(C2CN=C(c3cccc4[nH]ccc34)O2)cc(OC)c1OC (centres undefined)

IC50 (HCT-15 [1]): 540 nM
bioavailability [2]: 0%
IC50 (NCI-H460): 470 nM
Compound: COc1cc(C2CN=C(c3cccc4cc[nH]c34)O2)cc(OC)c1OC (centres undefined)

IC50 (HCT-15 [1]): 28000 nM
IC50 (NCI-H460): 100000 nM
Compound: COc1cc(C2CN=C(c3ccc4cncn4c3)O2)cc(OC)c1OC (centres undefined)

bioavailability [4]: 16.2%
IC50 (HCT-15 [1]): 390 nM
half-life [8]: 1.4 h
AUC [9]: 890 ng·h/mL
bioavailability [10]: 21%
half-life [11]: 2.9 h
IC50 [13]: 740000 nM
AUC [15]: 400 ng·h/mL
AUC [19]: 330 ng·h/mL
half-life [26]: 1.3 h
bioavailability [20]: 7%
bioavailability [21]: 44%
IC50 (NCI-H460): 460 nM
half-life [27]: 1.3 h
AUC [24]: 3040 ng·h/mL
Compound: COc1cc([C@@H]2CN=C(c3ccc4c(ccn4C)c3)O2)cc(OC)c1OC

IC50 (HCT-15 [1]): 67 nM
bioavailability [2]: 0%
IC50 (NCI-H460): 82 nM
Compound: COc1cc(C2CN=C(c3c[nH]c4ccccc34)O2)cc(OC)c1OC (centres undefined)

IC50 (HCT-15 [1]): 3800 nM
bioavailability [2]: 19.8%
IC50 (NCI-H460): 4200 nM
Compound: COc1cc(C2CN=C(c3ccc4c(ccn4CC(F)(F)F)c3)O2)cc(OC)c1OC (centres undefined)

IC50 (HCT-15 [1]): 200 nM
bioavailability [2]: 38.1%
IC50 (NCI-H460): 100 nM
Compound: COc1cc(C2CN=C(c3ccc4[nH]ccc4c3)O2)cc(OC)c1OC (centres undefined)

IC50 (NCI-H460): > 10 nM
Compound: CC(=O)O[C@H]1C(=O)[C@@]2(C)[C@H]([C@H](OC(=O)c3ccccc3)[C@]3(O)C[C@H](OC(=O)[C@H](O)[C@@H](NC(=O)c4ccccc4)c4ccccc4)C(C)=C1C3(C)C)[C@]1(OC(C)=O)CO[C@@H]1C[C@@H]2O [PACLITAXEL]

IC50 (HCT-15 [1]): 2400 nM
IC50 (NCI-H460): 3200 nM
Compound: COc1cc(C2CN=C(c3ccc4ncccc4c3)O2)cc(OC)c1OC (centres undefined)

IC50 (HCT-15 [1]): 160000 nM
IC50 (NCI-H460): 270000 nM
Compound: COc1cc(C2CN=C(c3cnc4ccccc4c3)O2)cc(OC)c1OC (centres undefined)

IC50 (HCT-15 [1]): 660 nM
IC50 (NCI-H460): 1500 nM
Compound: COc1cc(C2CN=C(c3cc4ccccc4n3C)O2)cc(OC)c1OC (centres undefined)

IC50 (HCT-15 [1]): 510 nM
IC50 (NCI-H460): 810 nM
Compound: COc1cc(C2CN=C(c3ccc4c(c3)CCN4C)O2)cc(OC)c1OC (centres undefined)

IC50 (HCT-15 [1]): 170 nM
IC50 (NCI-H460): 210 nM
Compound: COc1cc(C2CN=C(c3ccc4c(c3)cc(C)n4C)O2)cc(OC)c1OC (centres undefined)

IC50 (HCT-15 [1]): 1200 nM
IC50 (NCI-H460): > 100000 nM
Compound: COc1cc(C2CN=C(c3ccc4[nH]c(O)nc4c3)O2)cc(OC)c1OC (centres undefined)

IC50 (HCT-15 [1]): 43 nM
Ki (Tubulin beta chain [28]): > 100000 nM
IC50 [13]: 1000 nM
IC50 (NCI-H460): 3.4 nM
Compound: CC[C@]1(O)C[C@@H]2CN(CCc3c([nH]c4ccccc34)[C@@](C(=O)OC)(c3cc4c(cc3OC)N(C)[C@H]3[C@@](O)(C(=O)OC)[C@H](OC(C)=O)[C@]5(CC)C=CCN6CC[C@]43[C@@H]65)C2)C1 [VINBLASTINE]

Compound: COc1ccc(/C=C\c2cc(OC)c(OC)c(OC)c2)cc1O [COMBRETASTATIN A4]
IC50 (Bos taurus): 1600 nM

IC50 (HCT-15 [1]): 120 nM
bioavailability [2]: 10.5%
IC50 (NCI-H460): 330 nM
Compound: COc1cc(C2CN=C(c3ccc4cc[nH]c4c3)O2)cc(OC)c1OC (centres undefined)
